Reference: patent US7410955B2, “Therapeutic use of agonist ligands specific to G2A receptor” (Biosynergen, Inc., priority 2002, dated 2008)

How the values were obtained:
monocytes (human PBMC) = test: IL-8 release induced by LPS in monocytes (ELISA); type: cell-based; details: 15 μM and 30 μM, 1 hour before 1 μg/ml LPS, supernatant after 3 hours
Description: Peripheral bloods were collected from a healthy person, put into a heparinized tube and then well mixed with 1× PBS buffer. Then, they were layered in Ficoll-Hypaque solution (density 1.077, Sigma Chemical Co., USA) and then centrifuged at 2500 rpm at 4° C. for 25 min. After the monocyte layer between Ficoll layer and plasma layer had been cautiously recovered, 1×PBS buffer was added thereto and mixed well. It was then centrifuged again at 2500 rpm at 4° C. for 25 min. Such centrifugation procedures were repeated twice until red blood cells were depleted. Thereafter, the pellet was cultured in FBS at 37° C. for 15 min and centrifuged at 2500 rpm for 10 min. Then, 1×PBS buffer was added again to the pellet. The isolated cells were layered in percoll solution (density 1.066) and then centrifuged at 2500 rpm at 4° C. for 30 min. After only monocyte layer had been recovered from the isolated layers, 1×PBS buffer was added thereto. They were centrifuged at 2500 rpm for 15 min. […]
The neutrophils and monocytes isolated in Examples <2-1> and <2-2> above were cultured in a 96-well plate to which RPMI1640 medium containing 10% FBS was added, at a concentration of 1×10^5 cells/well/0.2 ml, respectively. […] Then, the level of IL-8 was measured using ELISA kit (Biosource, USA).

E. coli (DH5a) = test: Bacteria-induced sepsis model; type: in vivo, ICR mice; details: 10 mg/kg subcutaneous, 2 and 14 hours after i.p. E. coli
Description: ICR mice (25-30 g in body weight; MJ Ltd.) were intraperitoneally injected with alive 10^8 cells/ml E. coli (DH5a) that were suspended in 0.5 ml of PBS (phosphate-buffered saline) to cause peritonitis, thereby inducing sepsis.
After the peritoneal cavity of mice had been exposed, it was washed with sterilized saline (2 ml). The resultant solution was diluted with HBSS (Sigma Chemical Co., USA) in a ratio of 1/1000, and then 10 μl of each diluted solution was spread on Trypticase Soy agar (BBL, Becton Dickinson Co., USA) plates. After overnight incubation at 37° C., colony forming unit (CFU) was measured.
14 ICR mice of bacteria-induced septicemia model according to Reference Example <1-1> a) were divided into two groups of 7 mice. 7 mice were administered with 1-stearoyl LPC (Sigma Chemical Co., USA) dissolved in 1% BSA (bovine serum albumin) solution containing no fatty acid in an amount of 10 mg/kg by subcutaneous injection, 2 and 14 hours after E. coli was intraperitoneally injected, respectively (experimental group). The remaining 7 mice were administered with 1% BSA solution containing no fatty acid of the same amount as above, instead of LPC, in the same manner (control group). […] Also, the number of intraperitoneal E. coli cells 24 hours after the intraperitoneal injection was measured in accordance with the method described in Reference Example 3.

E. coli = test: In vitro antibacterial activity of LPC (CFU on LB media); type: cell-based; details: for CFU: 37° C., 12 hours
Description: Four petridishes per group were used. For a control group, only LB media was poured onto four 60-mm petridishes and hardened. The peritoneal cavity of mice according to Example <6-1> was washed with sterilized saline. The resultant solution was diluted with HBSS in a ratio of 1/100, and then 10 μl of the diluted solution was spread on the media for each group. Subsequently, after they had been incubated in a bacteria incubator maintained at 37° C. for 12 hours, colony forming unit (CFU) was visibly measured.

[1] = test system: myeloperoxidase (MPO) in pulmonary tissues; test: LPS-induced (intratracheal) acute lung injury model, lung MPO activity; type: in vivo, ICR mice
Description: The activity of myeloperoxidase (MPO), an indicator of neutrophils, in pulmonary tissues was determined according to the methods of Goldblum et al (J. Appl. physiol. 59: 1978, 1985) and Parey et al (J. Immunol. 160:1007, 1998). First, mice were sacrificed and pulmonary tissues were obtained therefrom. The tissues had been homogenized in potassium phosphate buffer, and centrifuged to obtain pellets. These pellets were sonicated in potassium phosphate buffer containing 0.5% hexadecyltrimethylammonium bromide (HTAB), and incubated at 60° C. for 120 min. After centrifugation, supernatants were obtained. 0.02 ml of supernatants was mixed with potassium phosphate buffer solution (0.18 ml) containing o-dianisidine dihydrochloride of 0.167 mg/ml and 0.0005% hydrogen peroxide. Accordingly, the absorbance of the mixture was determined at a wavelength of 460 nm.
Mice were intratracheally administered with LPS to cause direct acute lung injury, thereby inducing acute respiratory distress syndrome.
ICR mice (25-30 g in body weight; MJ Ltd.) were divided into five groups of 7 mice (Sham group, experimental groups-1, -2, -3 and a control group). Mice of each group were anesthetized with pentobarbital, their skins were dissected in a length of 1 cm to expose their bronchia. […]

## CCCCCCCCCCCCCCCCCC(=O)OCC(O)COP(=O)([O-])OCC[N+](C)(C)C (stereo not drawn) [1-stearoyl LPC, 1-stearoyl (18:0) lysophosphatidylcholine]
Monocytes (human PBMC)
  level of IL-8 release that had been increased by LPS in monocytes: inhibited by LPC in a concentration-dependent manner
E. coli (DH5a); 24 hours after injection, P<0.01
  number of intraperitoneal E. coli cells: remarkably decreased
E. coli (DH5a); P<0.05
  death rate due to septicemia (survival rate over time): significantly suppressed
E. coli; LPC conc. 12 μM in LB media
  CFU: 661 ± 285
E. coli; LPC conc. 60 μM in LB media
  CFU: 639 ± 304
E. coli; LPC conc. 300 μM in LB media
  CFU: 611 ± 281
E. coli; summary of Table 1
  in vitro direct antibacterial effects against E. coli: no in vitro direct antibacterial effects
[1]; 20 mg/kg subcutaneous (experimental group-3), p<0.01
  activity of MPO in pulmonary tissues: the most excellent effects
[1]; 5, 10 and 20 mg/kg subcutaneous, 2 and 14 hours after intratracheal LPS, 24 hours after LPS, vs control group
  activity of MPO in pulmonary tissues: suppressed in a concentration-dependent manner
